Laboratory results from patent US20250250299A1, “MACROCYCLIC IMMUNOMODULATORS” (Bristol-Myers Squibb Company, priority 2022, published 2025).
Where a SMILES comes first, the peptide text is derived from it. Bridges are numbered along the chain shown (N, C = ends). [ ]: non-standard residue; d: D form. The star is where a group is joined. X1 = O=C(O)CCCCCCCCCCCCCCCCC(=O)N[C@@H](CCC(=O)NCCOCCOCCOCCOCCOCCOCCOCCOCCOCCOCCOCCn1cc(C*)nn1)C(=O)O; Bip = N[C@@H](Cc1ccc(-c2ccccc2)cc1)C(=O)O; Phe(3-Me) = Cc1cccc(C[C@H](N)C(=O)O)c1; C12 diacid = O=C(O)CCCCCCCCCCC(=O)*; 4Pal = N[C@@H](Cc1ccncc1)C(=O)O; Cha = N[C@@H](CC1CCCCC1)C(=O)O; Carboxymethyl = O=C(O)C*; NMeA = CN[C@@H](C)C(=O)O; Orn = NCCC[C@H](N)C(=O)O; Dab = NCC[C@H](N)C(=O)O; Dap = NC[C@H](N)C(=O)O; AEEA = NCCOCCOCC(=O)O

Biological target: T1, human PD-1 (Jurkat-PD-1 cells; binding of PE-labeled human PD-L1-Ig) (Homo sapiens, UniProt Q15116)
T1 construct: expressed in transfected cells; host or cells: Jurkat (Jurkat-PD-1 / Jurkat-hPD-1)
Assay: Jurkat-PD-1 Cell Binding High-Content Screening Assay
Settings: Jurkat cell line over-expressing human PD-1; compound 2 h at 37° C., then PE-labeled PD-L1-Ig 20 nM final, 1 hour; read-out: Jurkat hPD1 PDL1 IC50

T1 sequence (Q15116 25-288): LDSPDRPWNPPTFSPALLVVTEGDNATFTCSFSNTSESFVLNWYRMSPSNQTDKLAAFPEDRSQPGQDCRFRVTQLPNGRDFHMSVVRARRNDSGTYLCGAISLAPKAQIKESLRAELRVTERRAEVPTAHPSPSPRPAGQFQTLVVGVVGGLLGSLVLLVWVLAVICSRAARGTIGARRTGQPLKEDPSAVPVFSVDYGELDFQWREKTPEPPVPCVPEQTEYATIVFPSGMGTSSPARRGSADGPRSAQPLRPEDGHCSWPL

SMILES	IC50
Cc1cccc(C[C@@H]2NC(=O)[C@H](CC(=O)O)NC(=O)[C@H](Cc3ccc(OCC(=O)O)cc3)NC(=O)[C@H](CN)NC(=O)CSC[C@@H](C(=O)N[C@@H](CCN)C(=O)NCCOCCOCC(N)=O)NC(=O)[C@H](COCc3cn(CCOCCOCCOCCOCCOCCOCCOCCOCCOCCOCCOCCNC(=O)CC[C@H](NC(=O)CCCCCCCCCCCCCCCCC(=O)O)C(=O)O)nn3)NC(=O)[C@H](C(C)C)NC(=O)[C@H](CC3CCCCC3)NC(=O)[C@H](CCN)NC(=O)[C@@H](CC(C)C)NC(=O)[C@H](CCCN)NC(=O)[C@H](Cc3ccc(OCC(=O)O)cc3)NC(=O)[C@H](Cc3ccc(-c4ccccc4)cc3)NC(=O)[C@H](Cc3ccc(OCC(=O)O)cc3)NC2=O)c1 [Compound 1041] ({CH2CO}-[Dap]Y(Carboxymethyl)D[Phe(3-Me)]Y(Carboxymethyl)[Bip]Y(Carboxymethyl)[Orn][dL][Dab][Cha]VS(X1)C[Dab][AEEA]-NH2; thioether N-14)	140 nM
Cc1cccc(C[C@@H]2NC(=O)[C@H](CC(=O)O)NC(=O)[C@H](Cc3ccc(OCC(=O)O)cc3)NC(=O)[C@H](CN)NC(=O)CSC[C@@H](C(=O)N[C@@H](CCN)C(=O)NCCOCCOCC(N)=O)NC(=O)[C@H]([C@@H](C)O)NC(=O)[C@H](C(C)C)NC(=O)[C@H](CC3CCCCC3)NC(=O)[C@H](CCN)NC(=O)[C@@H](CC(C)C)NC(=O)[C@H](CCCN)NC(=O)[C@H](COCc3cn(CCOCCOCCOCCOCCOCCOCCOCCOCCOCCOCCOCCNC(=O)CC[C@H](NC(=O)CCCCCCCCCCCCCCCCC(=O)O)C(=O)O)nn3)NC(=O)[C@H](Cc3ccc(-c4ccccc4)cc3)NC(=O)[C@H](Cc3ccc(OCC(=O)O)cc3)NC2=O)c1 [Compound 1042] ({CH2CO}-[Dap]Y(Carboxymethyl)D[Phe(3-Me)]Y(Carboxymethyl)[Bip]S(X1)[Orn][dL][Dab][Cha]VTC[Dab][AEEA]-NH2; thioether N-14)	220 nM
Cc1cccc(C[C@@H]2NC(=O)[C@H](CC(=O)O)NC(=O)[C@H](Cc3ccc(OCC(=O)O)cc3)NC(=O)[C@H](CN)NC(=O)CSC[C@@H](C(=O)N[C@@H](CCN)C(=O)NCCOCCOCC(N)=O)NC(=O)[C@H]([C@@H](C)O)NC(=O)[C@H](C(C)C)NC(=O)[C@H](CC3CCCCC3)NC(=O)[C@H](CCN)NC(=O)[C@@H](CC(C)C)NC(=O)[C@H](COCc3cn(CCOCCOCCOCCOCCOCCOCCOCCOCCOCCOCCOCCNC(=O)CC[C@H](NC(=O)CCCCCCCCCCCCCCCCC(=O)O)C(=O)O)nn3)NC(=O)[C@H](Cc3ccc(OCC(=O)O)cc3)NC(=O)[C@H](Cc3ccc(-c4ccccc4)cc3)NC(=O)[C@H](Cc3ccc(OCC(=O)O)cc3)NC2=O)c1 [Compound 1043] ({CH2CO}-[Dap]Y(Carboxymethyl)D[Phe(3-Me)]Y(Carboxymethyl)[Bip]Y(Carboxymethyl)S(X1)[dL][Dab][Cha]VTC[Dab][AEEA]-NH2; thioether N-14)	610 nM

More lines, now with the values ahead:

IC50	SMILES
360 nM	CC(C)C[C@H]1NC(=O)[C@H](C)N(C)C(=O)[C@H](C(C)C)NC(=O)[C@H](Cc2ccc(-c3ccccc3)cc2)NC(=O)[C@H](C(C)C)NC(=O)[C@H](Cc2c[nH]c3ccccc23)NC(=O)[C@H](CC(=O)O)NC(=O)[C@H](Cc2ccncc2)NC(=O)[C@H](Cc2ccc(OCC(=O)O)cc2)NC(=O)CSC[C@@H](C(N)=O)NC(=O)[C@H](CO)NC(=O)[C@H](C(C)C)NC(=O)[C@H](CC2CCCCC2)NC(=O)[C@H](CCCCNC(=O)CCCCCCCCCCC(=O)O)NC1=O [Compound 1044] ({CH2CO}-Y(Carboxymethyl)[4Pal]DWV[Bip]V[NMeA][dL]K(C12 diacid)[Cha]VSC-NH2; thioether N-14)
180 nM	CC(C)C[C@H]1NC(=O)[C@H](C)N(C)C(=O)[C@H](C(C)C)NC(=O)[C@H](Cc2ccc(-c3ccccc3)cc2)NC(=O)[C@H](C(C)C)NC(=O)[C@H](Cc2c[nH]c3ccccc23)NC(=O)[C@H](CC(=O)O)NC(=O)[C@H](Cc2ccncc2)NC(=O)[C@H](Cc2ccc(OCC(=O)O)cc2)NC(=O)CSC[C@@H](C(N)=O)NC(=O)[C@H](CCCCNC(=O)CCCCCCCCCCC(=O)O)NC(=O)[C@H](C(C)C)NC(=O)[C@H](CC2CCCCC2)NC(=O)[C@H](CC(N)=O)NC1=O [Compound 1045] ({CH2CO}-Y(Carboxymethyl)[4Pal]DWV[Bip]V[NMeA][dL]N[Cha]VK(C12 diacid)C-NH2; thioether N-14)
